# Test results reported in ChEMBL document CHEMBL1208667, “Permanent positive charge strongly influences DNA/RNA binding and antiproliferative activity of urea-phenanthridinium conjugates” (Eur J Med Chem, 2010).
# Active and inactive are the calls of the source. The calls are words filed in the database; no cut-off is given here.
# Experiments:
# Nucleic Acid [1] = test: Binding affinity to […] assessed as melting temperature at compound to DNA molar ratio of 0.2 at pH 7 by thermal denaturation assay; type: nucleic-acid assay
# Calf thymus DNA [2] = test: Binding affinity to calf thymus DNA assessed as melting temperature at compound to DNA molar ratio of 0.2 at pH 5 by thermal denaturation assay; type: nucleic-acid assay; conditions: Bos taurus
# Calf thymus DNA [3] = test: Binding affinity to calf thymus DNA in citric acid buffer at pH 5 by fluorescence titration assay; type: nucleic-acid assay; conditions: Bos taurus
# Calf thymus DNA [4] = test: Binding affinity to calf thymus DNA assessed as change in melting temperature at compound to DNA molar ratio of 0.2 at pH 5 by thermal denaturation assay; type: nucleic-acid assay; conditions: Bos taurus
# Nucleic Acid [5] = test: Binding affinity to poly dA-poly dT RNA in citric acid buffer at pH 5 by fluorescence titration assay relative to control; type: nucleic-acid assay
# Calf thymus DNA [6] = test: Binding affinity to calf thymus DNA at compound to DNA molar ratio of 0.1 to 0.5 at pH 5 by circular dichroism; type: nucleic-acid assay; conditions: Bos taurus
# Calf thymus DNA [7] = test: Binding affinity to calf thymus DNA assessed as change in melting temperature at compound to DNA molar ratio of 0.3 at pH 7 by thermal denaturation assay; type: nucleic-acid assay; conditions: Bos taurus
# Nucleic Acid [8] = test: Binding affinity to poly A-poly U RNA in sodium cacodylate buffer at pH 7 by fluorescence titration assay relative to control; type: nucleic-acid assay
# HT-29 = test: Cytotoxicity against human HT-29 cells at 0.1 to 100 uM after 72 hrs by MTT assay; type: functional, cell-based
# Nucleic Acid [9] = test: Binding affinity to poly G-poly C RNA in sodium cacodylate buffer at pH 7 by fluorescence titration assay relative to control; type: nucleic-acid assay
# Nucleic Acid [10] = test: Binding affinity to UMP in sodium cacodylate buffer at pH 7 by fluorescence titration assay relative to control; type: nucleic-acid assay
# Caco-2 [11] = test: Cytotoxicity against human Caco-2 cells at 0.1 to 100 uM after 72 hrs by MTT assay; type: functional, cell-based
# Caco-2 [12] = test: Cytotoxicity against human Caco-2 cells at 100 uM after 72 hrs by MTT assay; type: functional, cell-based
# Nucleic Acid [13] = test: Binding affinity to poly dA-poly dT RNA in citric acid buffer at pH 5 by fluorescence titration assay; type: nucleic-acid assay
# Calf thymus DNA [14] = test: Binding affinity to calf thymus DNA assessed as melting temperature at compound to DNA molar ratio of 0.2 at pH 7 by thermal denaturation assay; type: nucleic-acid assay; conditions: Bos taurus
# Nucleic Acid [15] = test: Binding affinity to poly A-poly U RNA assessed as biphasic transitions of change in melting temperature at compound to DNA molar ratio of 0.2 at pH 5 by thermal denaturation assay; type: nucleic-acid assay
# Calf thymus DNA [16] = test: Binding affinity to calf thymus DNA in sodium cacodylate buffer at pH 7 by fluorescence titration assay; type: nucleic-acid assay; conditions: Bos taurus
# Nucleic Acid [17] = test: Binding affinity to AMP in sodium cacodylate buffer at pH 7 by fluorescence titration assay relative to control; type: nucleic-acid assay
# Nucleic Acid [18] = test: Binding affinity to […] assessed as melting temperature at compound to DNA molar ratio of 0.2 at pH 5 by thermal denaturation assay; type: nucleic-acid assay
# Calf thymus DNA [19] = test: Binding affinity to calf thymus DNA assessed as melting temperature at compound to DNA molar ratio of 0.3 at pH 7 by thermal denaturation assay; type: nucleic-acid assay; conditions: Bos taurus
# Nucleic Acid [20] = test: Binding affinity to AMP in citric acid buffer at pH 5 by fluorescence titration assay relative to control; type: nucleic-acid assay
# MIA PaCa-2 [21] = test: Cytotoxicity against human MIAPaCa2 cells at 0.1 to 100 uM after 72 hrs by MTT assay; type: functional, cell-based
# Nucleic Acid [22] = test: Binding affinity to […] assessed as melting temperature at compound to DNA molar ratio of 0.3 at pH 7 by thermal denaturation assay; type: nucleic-acid assay
# Nucleic Acid [23] = test: Binding affinity to poly dA-poly dT RNA in sodium cacodylate buffer at pH 7 by fluorescence titration assay; type: nucleic-acid assay
# Calf thymus DNA [24] = test: Binding affinity to calf thymus DNA assessed as change in melting temperature at compound to DNA molar ratio of 0.2 at pH 7 by thermal denaturation assay; type: nucleic-acid assay; conditions: Bos taurus
# Nucleic Acid [25] = test: Binding affinity to […] assessed as change in melting temperature at compound to DNA molar ratio of 0.2 at pH 7 by thermal denaturation assay; type: nucleic-acid assay
# HEp-2 = test: Cytotoxicity against human Hep2 cells at 0.1 to 100 uM after 72 hrs by MTT assay; type: functional, cell-based
# Calf thymus DNA [26] = test: Binding affinity to calf thymus DNA assessed as melting temperature at compound to DNA molar ratio of 0.3 at pH 5 by thermal denaturation assay; type: nucleic-acid assay; conditions: Bos taurus
# Nucleic Acid [27] = test: Binding affinity to poly G-poly C RNA in citric acid buffer at pH 5 by fluorescence titration assay; type: nucleic-acid assay
# Calf thymus DNA [28] = test: Binding affinity to calf thymus DNA in sodium cacodylate buffer at pH 7 by fluorescence titration assay relative to control; type: nucleic-acid assay; conditions: Bos taurus
# Nucleic Acid [29] = test: Binding affinity to […] assessed as change in melting temperature at compound to DNA molar ratio of 0.3 at pH 7 by thermal denaturation assay; type: nucleic-acid assay
# Nucleic Acid [30] = test: Binding affinity to poly A-poly U RNA at compound to DNA molar ratio of 0.1 to 0.5 at pH 7 by circular dichroism; type: nucleic-acid assay
# Nucleic Acid [31] = test: Binding affinity to poly A-poly U RNA assessed as melting temperature at compound to DNA molar ratio of 0.2 at pH 7 by thermal denaturation assay; type: nucleic-acid assay
# Nucleic Acid [32] = test: Binding affinity to poly A-poly U RNA assessed as melting temperature at compound to DNA molar ratio of 0.3 at pH 7 by thermal denaturation assay; type: nucleic-acid assay
# Nucleic Acid [33] = test: Binding affinity to poly G-poly C RNA in citric acid buffer at pH 5 by fluorescence titration assay relative to control; type: nucleic-acid assay
# Nucleic Acid [34] = test: Binding affinity to […] assessed as change in melting temperature at compound to DNA molar ratio of 0.2 at pH 5 by thermal denaturation assay; type: nucleic-acid assay
# Nucleic Acid [35] = test: Binding affinity to poly A-poly U RNA in citric acid buffer at pH 5 by fluorescence titration assay relative to control; type: nucleic-acid assay
# Nucleic Acid [36] = test: Binding affinity to poly dA-poly dT RNA in sodium cacodylate buffer at pH 7 by fluorescence titration assay relative to control; type: nucleic-acid assay
# MIA PaCa-2 [37] = test: Cytotoxicity against human MIAPaCa2 cells at 100 uM after 72 hrs by MTT assay; type: functional; conditions: MIA PaCa-2, 72 h
# Nucleic Acid [38] = test: Binding affinity to CMP in sodium cacodylate buffer at pH 7 by fluorescence titration assay relative to control; type: nucleic-acid assay
# Nucleic Acid [39] = test: Binding affinity to poly A-poly U RNA assessed as melting temperature at compound to DNA molar ratio of 0.2 at pH 5 by thermal denaturation assay; type: nucleic-acid assay
# [40] = Solubility of the compound in water; type: physicochemical; conditions: buffer
# Nucleic Acid [41] = test: Binding affinity to CMP in citric acid buffer at pH 5 by fluorescence titration assay relative to control; type: nucleic-acid assay
# Nucleic Acid [42] = test: Binding affinity to GMP in sodium cacodylate buffer at pH 7 by fluorescence titration assay relative to control; type: nucleic-acid assay
# Nucleic Acid [43] = test: Binding affinity to poly A-poly U RNA assessed as change in melting temperature at compound to DNA molar ratio of 0.3 at pH 7 by thermal denaturation assay; type: nucleic-acid assay
structure (smiles),measurement,setting,value
Cc1c2cc(NC(=O)NCCCCCCNC(=O)Nc3ccc4c(c3)c(C)[n+](C)c3ccccc43)ccc2c2ccccc2[n+]1C.O=S(=O)([O-])O.O=S(=O)([O-])O,Tm,Nucleic Acid [1],70.1 °C
same,Tm,Calf thymus DNA [2],74.6 °C
same,log Ks,Calf thymus DNA [3],> 7
same,ΔTm,Calf thymus DNA [4],14 °C
same,RFU,Nucleic Acid [5],24
same,Activity,Calf thymus DNA [6],Active
same,ΔTm,Calf thymus DNA [7],5.5 °C
same,RFU,Nucleic Acid [8],15.8
same,Activity,HT-29,Active
same,RFU,Nucleic Acid [9],0.3
same,RFU,Nucleic Acid [10],3.5
same,Activity,Caco-2 [11],Active
same,Activity,Caco-2 [12],Active
same,log Ks,Nucleic Acid [13],6.1
same,Tm,Calf thymus DNA [14],83.2 °C
same,ΔTm,Nucleic Acid [15],-1.2 °C
same,log Ks,Calf thymus DNA [16],6.2
same,RFU,Nucleic Acid [17],-47.8
same,Tm,Nucleic Acid [18],59.7 °C
same,Tm,Calf thymus DNA [19],84.8 °C
same,RFU,Nucleic Acid [20],3.8
same,Activity,MIA PaCa-2 [21],Active
same,Tm,Nucleic Acid [22],71.3 °C
same,log Ks,Nucleic Acid [23],5.3
same,ΔTm,Calf thymus DNA [24],3.9 °C
same,ΔTm,Nucleic Acid [25],5.2 °C
same,Activity,HEp-2,Active
same,Tm,Calf thymus DNA [26],76.3 °C
same,log Ks,Nucleic Acid [27],5.5
same,RFU,Calf thymus DNA [28],1.8
same,ΔTm,Nucleic Acid [29],6.4 °C
same,Activity,Nucleic Acid [30],Active
same,Tm,Nucleic Acid [31],51.5 °C
same,Tm,Nucleic Acid [32],51.5 °C
same,RFU,Nucleic Acid [33],0
same,ΔTm,Nucleic Acid [34],9.7 °C
same,RFU,Nucleic Acid [35],20
same,RFU,Nucleic Acid [36],10.7
same,inhibition at 100 µM,MIA PaCa-2 [37],43.1%
same,RFU,Nucleic Acid [38],3.5
same,Tm,Nucleic Acid [39],83 °C
same,solubility,[40],1240 µM
same,RFU,Nucleic Acid [41],-15.3
same,RFU,Nucleic Acid [42],6.3
same,ΔTm,Nucleic Acid [43],0 °C
Cc1c2cc(NC(=O)NCCNC(=O)Nc3ccc4c(c3)c(C)[n+](C)c3ccccc43)ccc2c2ccccc2[n+]1C.O=S(=O)([O-])O.O=S(=O)([O-])O,Tm,Nucleic Acid [1],70.2 °C
same,Tm,Calf thymus DNA [2],72.7 °C
same,log Ks,Calf thymus DNA [3],6.4
same,ΔTm,Calf thymus DNA [4],12.1 °C
same,RFU,Nucleic Acid [5],56
same,Activity,Calf thymus DNA [6],Active
same,ΔTm,Calf thymus DNA [7],3.8 °C
same,RFU,Nucleic Acid [8],9.2
same,Activity,HT-29,Active
same,RFU,Nucleic Acid [9],0.7
same,RFU,Nucleic Acid [10],62.5
same,Activity,Caco-2 [11],Active
same,Activity,Caco-2 [12],inactive
same,log Ks,Nucleic Acid [13],6.1
same,Tm,Calf thymus DNA [14],81.7 °C
same,ΔTm,Nucleic Acid [15],-0.1 °C
same,log Ks,Calf thymus DNA [16],6.1
same,RFU,Nucleic Acid [17],-45.2
same,Tm,Nucleic Acid [18],59.4 °C
same,Tm,Calf thymus DNA [19],83.1 °C
same,RFU,Nucleic Acid [20],-6.9
same,Activity,MIA PaCa-2 [21],Active
same,Tm,Nucleic Acid [22],71 °C
same,log Ks,Nucleic Acid [23],5.3
same,ΔTm,Calf thymus DNA [24],2.4 °C
same,ΔTm,Nucleic Acid [25],5.3 °C
same,Activity,HEp-2,Active
same,Tm,Calf thymus DNA [26],75.6 °C
same,log Ks,Nucleic Acid [27],5.5
same,RFU,Calf thymus DNA [28],3
same,ΔTm,Nucleic Acid [29],6.1 °C
same,Activity,Nucleic Acid [30],Active
same,Tm,Nucleic Acid [31],51.5 °C
same,Tm,Nucleic Acid [32],51.6 °C
same,RFU,Nucleic Acid [33],0
same,ΔTm,Nucleic Acid [34],9.4 °C
same,RFU,Nucleic Acid [35],2.3
same,RFU,Nucleic Acid [36],15
same,inhibition at 100 µM,MIA PaCa-2 [37],35%
same,RFU,Nucleic Acid [38],47.7
same,Tm,Nucleic Acid [39],84.1 °C
same,solubility,[40],1460 µM
same,RFU,Nucleic Acid [41],0.3
same,RFU,Nucleic Acid [42],34.2
same,ΔTm,Nucleic Acid [43],0 °C
